The values that follow come from patent publication US20230085307A1, “PYRIDAZINONE COMPOUND AND HERBICIDE” (NISSAN CHEMICAL CORPORATION, priority 2019, published 2023).

The test system of test [1] is wild oat. Description: Test Example 4: herbicidal effect by soil treatment (Table 19, symbol I). The format is in vivo, wild oat (Avena fatua). The essentials:
(§1)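 In this soil treatment, the formulated compound reached the seeds only through the soil: seeds were buried about 1.5 cm deep in sterilized diluvial soil, then the diluted emulsion was sprayed over the surface. After three weeks at 25° C. to 30° C. in a greenhouse, effects were graded on criteria from an earlier test.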

The subject of test [2] is persian speedwell. Description: Test Example 4: herbicidal effect by soil treatment (Table 19, symbol R). The class given is in vivo, Persian speedwell (Veronica persica). The essentials: as §1
Test [3] concerns green foxtail. Description: Test Example 4: herbicidal effect by soil treatment (Table 19, symbol G). The class given is in vivo, green foxtail (Setaria viridis). The method, boiled down:
as §1

For test [4], the system named is blackgrass. Description: Test Example 4: herbicidal effect by soil treatment (Table 19, symbol J). The format is in vivo, blackgrass (Alopecurus myosuroides). The method, boiled down: as §1
In test [5] the test system is redroot pigweed. Description: Test Example 4: herbicidal effect by soil treatment (Table 19, symbol N). The class given is in vivo, redroot pigweed (Amaranthus retroflexus). The essentials: as §1
Test [6] has as its system oval-leafed pondweed. Nature of the test: Test Example 1: herbicidal activity, application before weed generation under submerged conditions (Table 16, symbol C). The class given is in vivo, oval-leafed pondweed (Monochoria vaginalis). The following applies: 320 g/ha applied herbicide. The essentials: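 Submerged Wagner pots (alluvial soil, 4 cm water) sown with weed seeds and planted with 2.5-leaf rice seedlings; emulsifiable concentrate diluted in water applied to water surface on sowing day. Held in greenhouse at 25-30 °C; injury scored 0-5 by herbicidal rate after three weeks.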

Test [7] concerns rice flat sedge. Description: Test Example 3: herbicidal effect by foliage application, Wagner pot (Table 18, symbol E). The format is in vivo, rice flat sedge (Cyperus iria). The following applies: 320 g/ha. The essentials:
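Plants were sown in alluvial soil held under 0.1–0.5 cm standing water and grown 14 days in a greenhouse at 25–30 °C. An emulsifiable formulation, water-diluted to the set dose, was then sprayed onto the foliage, and effects were scored three weeks later using previously defined criteria.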

The subject of test [8] is green foxtail. Nature of the test: Test Example 5: herbicidal effect by foliage application, plastic box (Table 20, symbol G). The following applies: foliage application. The format is in vivo, green foxtail (Setaria viridis). The method, boiled down: (§2)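 Plants were sown into sterilized diluvial soil under about 1.5 cm cover and kept in a greenhouse at 25° C. to 30° C. Fourteen days on, foliage received an even spray of the diluted emulsion. Herbicidal or crop effect was judged three weeks afterwards.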

The subject of test [9] is oval-leafed pondweed. Nature of the test: Test Example 2: herbicidal activity, application during weed generation under submerged conditions (Table 17, symbol C). The format is in vivo, oval-leafed pondweed (Monochoria vaginalis). Particulars: AAH 320 g/ha; application during weed generation, submerged conditions. The essentials:
(§3)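 Effect on each weed is rated three weeks post-treatment, using the same scoring criteria as the preceding test. Plants grow from mixed-sown seed in flooded alluvial soil (4 cm water) at 25° C. to 30° C., and are treated at one to two leaves with diluted emulsion dropped onto the water.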

Test [10] has as its system redroot pigweed. Nature of the test: Test Example 5: herbicidal effect by foliage application, plastic box (Table 20, symbol N). The format is in vivo, redroot pigweed (Amaranthus retroflexus). The following applies: foliage application. The method, boiled down:
as §2

For test [11], the system named is late watergrass. Nature of the test: Test Example 2: herbicidal activity, application during weed generation under submerged conditions (Table 17, symbol A). The format is in vivo, late watergrass (Echinochloa oryzicola). The following applies: AAH 320 g/ha; application during weed generation, submerged conditions. The essentials:
as §3

For test [12], the system named is barnyard grass. Description: Test Example 5: herbicidal effect by foliage application, plastic box (Table 20, symbol H). The format is in vivo, barnyard grass (Echinochloa crus-galli). Particulars: foliage application. The method, boiled down: as §2
Test [13] has as its system chickweed. Nature of the test: Test Example 5: herbicidal effect by foliage application, plastic box (Table 20, symbol P). The format is in vivo, common chickweed (Stellaria media). Particulars: foliage application. The method, boiled down: as §2
Test [14] relates to Italian ryegrass. Description: Test Example 4: herbicidal effect by soil treatment (Table 19, symbol K). The class given is in vivo, Italian ryegrass (Lolium multiflorum). The method, boiled down: as §1
Test [15] relates to blackgrass. Nature of the test: Test Example 5: herbicidal effect by foliage application, plastic box (Table 20, symbol J). The class given is in vivo, blackgrass (Alopecurus myosuroides). Particulars: foliage application. The essentials:
as §2

Test [16] relates to chickweed. Nature of the test: Test Example 4: herbicidal effect by soil treatment (Table 19, symbol P). The class given is in vivo, common chickweed (Stellaria media). The essentials: as §1
The mark [17] stands for this setting: AAH 320 g/ha, three weeks after application.
Setting [18] is: 320 g/ha, evaluated three weeks after application.

Take `CCCC(=O)Oc1c(C)nn(C)c(=O)c1-c1c(-c2ccc([N+](=O)[O-])cc2)sc2ccccc12` [1-152]: the “I: wild oat, herbicidal effect rating” value in test [1] (AAH 320 g/ha) is listed as 0 (Herbicidal rate of 5% or less (almost no effect)). For the same compound, the “R: persian speedwell, herbicidal effect rating” value in [2] (AAH 320 g/ha) was 3 (Herbicidal rate of 40% or more and less than 70%). The “G: green foxtail, herbicidal effect rating” value in test [3] (AAH 320 g/ha) was 2 (Herbicidal rate of 20% or more and less than 40%). Also, in test [4] (AAH 320 g/ha), the “J: blackgrass, herbicidal effect rating” value was 0 (Herbicidal rate of 5% or less (almost no effect)). Also, the “N: redroot pigweed, herbicidal effect rating” value in test [5] (AAH 320 g/ha) was 3 (Herbicidal rate of 40% or more and less than 70%). Moreover, the “Herbicidal effect on C: oval-leafed pondweed (grade 0-5)” value in test [6] was 5 (Herbicidal rate of 90% or more (almost completely withered)). Moreover, in test [7], the “herbicidal effect on E (rice flat sedge), rating 0-5” value is 3 (Herbicidal rate of 40% or more and less than 70%). Also, in [8] (setting [17]), the “G: green foxtail, herbicidal effect” value was 5 (Herbicidal rate of 90% or more (almost completely withered)). In addition, the “herbicidal effect rating, C: oval-leafed pondweed” value in [9] is reported as 0 (Herbicidal rate of 5% or less (almost no effect)). For the same compound, the “N: redroot pigweed, herbicidal effect” value in test [10] (setting [17]) is reported as 5 (Herbicidal rate of 90% or more (almost completely withered)). Besides, the “herbicidal effect rating, A: late watergrass” value in test [11] is 3 (Herbicidal rate of 40% or more and less than 70%). Moreover, the “H: barnyard grass, herbicidal effect” value in [12] (setting [17]) was 4 (Herbicidal rate of 70% or more and less than 90%). For the same compound, the “P: chickweed, herbicidal effect” value in [13] (setting [17]) is 5 (Herbicidal rate of 90% or more (almost completely withered)). Moreover, in [14] (AAH 320 g/ha), the “K: Italian ryegrass, herbicidal effect rating” value is given as 0 (Herbicidal rate of 5% or less (almost no effect)). Also, in test [15] (setting [17]), the “J: blackgrass, herbicidal effect” value is recorded as 0 (Herbicidal rate of 5% or less (almost no effect)). Also, the “P: chickweed, herbicidal effect rating” value in [16] (AAH 320 g/ha) was 3 (Herbicidal rate of 40% or more and less than 70%).
Consider `C#CCOc1ccc(-c2sc3ccc(F)cc3c2-c2c(OCOCCOC)c(C)nn(C)c2=O)cc1` [2-055], for which the “herbicidal effect rating, I: wild oat” value in [1] (320 g/ha) is recorded as 0 (Herbicidal rate of 5% or less (almost no effect)). The “herbicidal effect rating, R: persian speedwell” value in [2] (320 g/ha) was 5 (Herbicidal rate of 90% or more (almost completely withered)). The “herbicidal effect rating, G: green foxtail” value in [3] (320 g/ha) was 4 (Herbicidal rate of 70% or more and less than 90%). Further, the “herbicidal effect rating, J: blackgrass” value in test [4] (320 g/ha) was 0 (Herbicidal rate of 5% or less (almost no effect)). In addition, in [5] (320 g/ha), the “herbicidal effect rating, N: redroot pigweed” value is 4 (Herbicidal rate of 70% or more and less than 90%). In addition, in test [6], the “Herbicidal effect on C: oval-leafed pondweed (grade 0-5)” value was 1 (Herbicidal rate of 5% or more and less than 20%). Further, the “herbicidal effect on E (rice flat sedge), rating 0-5” value in [7] is 4 (Herbicidal rate of 70% or more and less than 90%). Besides, the “herbicidal effect on G: green foxtail” value in [8] (setting [18]) is recorded as 5 (Herbicidal rate of 90% or more (almost completely withered)). Further, the “herbicidal effect rating, C: oval-leafed pondweed” value in [9] was 3 (Herbicidal rate of 40% or more and less than 70%). The “herbicidal effect on N: redroot pigweed” value in test [10] (setting [18]) is 5 (Herbicidal rate of 90% or more (almost completely withered)). For the same compound, the “herbicidal effect rating, A: late watergrass” value in test [11] is reported as 0 (Herbicidal rate of 5% or less (almost no effect)). Further, the “herbicidal effect on H: barnyard grass” value in test [12] (setting [18]) was 4 (Herbicidal rate of 70% or more and less than 90%). Besides, in test [13] (setting [18]), the “herbicidal effect on P: chickweed” value is 5 (Herbicidal rate of 90% or more (almost completely withered)). Further, in [14] (320 g/ha), the “herbicidal effect rating, K: Italian ryegrass” value was 0 (Herbicidal rate of 5% or less (almost no effect)). Also, in test [15] (setting [18]), the “herbicidal effect on J: blackgrass” value is 3 (Herbicidal rate of 40% or more and less than 70%). The “herbicidal effect rating, P: chickweed” value in [16] (320 g/ha) was 3 (Herbicidal rate of 40% or more and less than 70%).
